We go through one molecule from patent US7829723B2, “Polymorphic forms of (S)-1-cyanobutan-2-yl (S)-1-(3-3-(3-methoxy-4-(oxazol-5-yl)phenyl)uriedo)phenyl)ethylcarbamate” (Vertex Pharmaceuticals Incorporated, priority 2005, dated 2010).

A short description of data set [1]: Solubility of Compound 1 at elevated temperatures in various solvents. The settings on record: organic solvent or mixture. The class given is physicochemical.
Data set [2] is described as follows: Solubility of Compound 1 at room temperature in various solvents and solvent mixtures. The class given is physicochemical.

Converted amounts (≈) assume the structure as drawn.

As for `CC[C@@H](CC#N)OC(=O)N[C@@H](C)c1cccc(NC(=O)Nc2ccc(-c3cnco3)c(OC)c2)c1` [Compound 1, (S)-1-cyanobutan-2-yl (S)-1-(3-(3-(3-methoxy-4-(oxazol-5-yl)phenyl)ureido)phenyl)ethylcarbamate], the solubility (usually how much of the substance goes into solution per volume) worked out at 61 mg/mL (≈ 128 mM) in data set [1] (solvent Acetone, 40° C.); 67 mg/mL (≈ 140 mM) in data set [1] (solvent Acetone, Boiling point (56° C.)); 33 mg/mL (≈ 69.1 mM) in data set [1] (solvent MeOH, 40° C.); 36 mg/mL (≈ 75.4 mM) in data set [1] (solvent MeOH, 50° C.); 92 mg/mL (≈ 193 mM) in data set [1] (solvent MeOH, Boiling point (65° C.)); 75 mg/mL (≈ 157 mM) in data set [1] (solvent THF, 40° C.). Also, the solubility in data set [1] (solvent THF, Boiling point (65° C.)) is 115 mg/mL (≈ 241 mM); in data set [1] (solvent Toluene, 50° C.), below 2.3 mg/mL; in data set [1] (solvent t-Butyl methyl ether (MTBE), 45° C.), below 10.4 mg/mL; in data set [2] (aqueous with cosolvent or surfactant or cyclodextrin, solvent Acetone:H2O 20:80), below 8.9 mg/mL; in data set [2] (organic solvent or mixture, solvent 2-Butanone (MEK)) it was 10.5 mg/mL (≈ 22 mM); in data set [2] (organic solvent or mixture, solvent Acetone), 11 mg/mL (≈ 23 mM). In addition, the solubility was 1.6 mg/mL (≈ 3.35 mM) in data set [2] (organic solvent or mixture, solvent Acetonitrile); 1.6 mg/mL (≈ 3.35 mM) in data set [2] (organic solvent or mixture, solvent EtOH); 35 mg/mL (≈ 73.3 mM) in data set [2] (organic solvent or mixture, solvent THF).
